The values below come from patent publication US8211463B2, “Use of glycolipids as adjuvants” (Helmholtz-Zentrum Fuer Infektionsforschung GmbH, priority 2006, dated 2012).

Where only a bound is given, the exact number is not on record here.

The subject of assay [1] is spleen cells of immunized mice. The experiment in a line: Splenocyte proliferation ([3H]thymidine incorporation) after in vitro restimulation with β-Gal. It counts as in vivo, Balb/c mice. The following applies: i.n. How it is done:
(§1) Co-administration of β-Gal with 10 μg glycolipids 1, 5 and 6 induced a strong cellular immune responses against the β-Gal antigen in Balb/c mice. Balb/c mice were immunized by the i.n. or s.c. route with β-Gal alone or together with glycolipids 1, 5 and 6 three times at 2-wk intervals. 10 days after the final immunization, the immunized mice were sacrificed. Splenocytes of mice immunized by the i.n. (A) and s.c. (B) route were collected and cultured with different concentrations of the β-Gal-Protein for 4 days. […] Curves represent [^3H]thymidine incorporation (counts per minute, cpm) and Stimulation index (SI) in each group. Each group consists of five mice. Data are representative of three separate experiments.
as §1, with “with 20 up to 30” for “with 10”, “glycolipids” for “glycolipids 1,”, “represent [3H]thymidine incorpoaration” for “represent [^3H]thymidine incorporation”
Experimental protocol: Spleens were removed and pooled for analysis of cellular immune responses. Cells were grown in RPMI 1640 supplemented with 10% fetal calf serum, 100 U/ml of penicillin, 50 μg/ml of streptomycin, 5×10^−5 M 2-mercaptoethanol and 1 mM L-glutamine (GIBCO BRL, Karlsruhe, Germany) and maintained at 37° C. in a humidified 5% CO2 atmosphere. Spleen cell suspensions were adjusted to 5×10^6 cells/ml in complete medium, cells were seeded with 100 μl per well in a flat-bottomed 96-well microtiter plate (Nunc) and plates were incubated for 4 days. Unstimulated spleen cells were incubated in the presence of different concentrations of the new adjuvants to analyze the in vitro stimulation capacity of glycolipids 1, 5 or 6, respectively. T cellmediated immune responses were investigated at day 38 by measuring the proliferation of cells recovered from spleens after in vitro restimulation with β-Gal. Said spleen cells were obtained from vaccinated mice—said mice where immunized as described in Example 2—and incubated in the presence of different concentrations of the soluble β-Gal antigen. Each concentration was tested in triplicates. During the final 18 h of culture, 1 μCi of [^3H]thymidine (Amersham International, Freiburg, Germany) was added to each well. Cells were then harvested on paper filters (Filtermat A; Wallac, Freiburg, Germany) by using a cell harvester (Inotech, Wohlen, Switzerland), and the amount of incorporated [^3H]thymidine into the DNA of proliferating cells was determined by a β-scintillation counter (Wallac 1450, Micro-Trilux). The results are expressed as the arithmetic mean of [^3H]thymidine uptake in cpm.
A general note: Incorporation of labelled thymidine or its analogues reports DNA synthesis.

Assay [2] relates to IFN-γ, IL-2, IL-4, IL-5, and TNFα. As to the kind of experiment: Cytometric bead array of cytokines in supernatants of restimulated spleen cells. The settings on record: i.n., 10 μg glycolipid, restimulation with β-Gal antigen for 4 days. Format: in vivo, Balb/c mice. How it is done: Co-administration of β-Gal with 10 μg glycolipid 5 represented both Th1 and Th2 cytokine profiles activities in Balb/c mice. 10 days after the final immunization, the immunized Balb/c mice were sacrificed. A total of 5×10^6 cells/ml were stimulated with different concentrations of the β-Gal antigen for 4 days, and the levels of IFNγ and IL-4 in the supernatant were examined by the BD Cytometric bead array. Cytokine production of the spleen cells were analyzed using BD CBA kit according to the manufacturer's instructions. […] Curves represent cytokine concentration (pg/ml) and Stimulation index (SI) in response to enhanced antigen concentration in each group. Each group consists of five mice. Data are representative of two separate experiments.
To characterize the type of Th response stimulated following immunization, the content of IFN-γ, IL-2, IL-4, IL-5, and TNFα was measured in supernatants from in vitro re-stimulated spleen cells (FIGS. 8 and 9) by the Cytometric Bead Array. Culture supernatants from proliferating cells were collected on days 2 and 4, and stored at −70° C. Determinations of IFN-γ, TNFα, IL-2, IL-4, and IL-5 were performed by cytometric bead array analysis using the commercial kit from BectonDickinson, according to the manufacturer's instructions. […] The probes were analyzed subsequently by flow cytometry as described in the protocol of BD.

Setting [3] is: 10 μg glycolipid, restimulation with β-Gal for 4 days.

`CCCCCCCC/C=C\CCCCCCCCOCC(COCCCCCCCC/C=C\CCCCCCCC)O[C@@H]1O[C@H](CO)[C@@H](O[C@H]2O[C@H](CO)[C@@H](O)[C@H](O)[C@H]2O)[C@H](O)[C@H]1O` (relative stereo) [glycolipid 1, 1,3-Di-O[cis-9-octadecenyl]-2-O-[4′-O-(α-D-glycopyranosyl)-β-D-glycopyranosyl]-sn-glycerol]: the “Stimulation index (SI), [3H]thymidine incorporation of spleen cells” value in assay [1] (setting [3]) is “no effect”.

As to `CCCCCCCCCCCCCCOCC(COCCCCCCCCCCCCCC)O[C@@H]1O[C@H](CO)[C@@H](O[C@H]2O[C@H](CO)[C@@H](O)[C@H](O)[C@H]2O)[C@H](O)[C@H]1O` [glycolipid 5, 1,3-Di-O-tetradecyl-2-O-[4′-O-(α-D-glucopyranosyl)-β-D-glucopyranosyl]-sn-glycerol], the “expression of proinflammatory (TNFα), Th1 (IFNγ and IL-2) and Th2 (IL-5) cytokines by spleen cells” value in assay [2] is on record as “enhanced expression”.

With `CCCCCCCCCCCCCCOCC(COCCCCCCCCCCCCCC)O[C@@H]1O[C@H](CO[C@H]2O[C@H](CO)[C@H](O)[C@H](O)[C@H]2O)[C@@H](O)[C@H](O)[C@H]1O` [glycolipid 6, 1,3-di-O-tetradecyl-2-O-[6′-O-(α-D-galactopyranosyl)-β-D-glucopyranosyl]-sn-glycerol], the “Stimulation index (SI), [3H]thymidine incorporation of spleen cells” value is on record as “no effect” in assay [1] (setting [3]); “strong responses” in assay [1] (20 up to 30 μg glycolipid, restimulation with β-Gal for 4 days); over 3 in assay [1] (highest concentration (30 μg per animal)).
